US4379165A, “Anti-convulsant” (priority 1981, dated 1983)
Entries after “also recorded” stand apart in the source; their conditions may differ. Read-outs that look alike come from different tables or passages of the source.

Tests used:
[1] = system: subcutaneous bicuculline seizure threshold; assay: subcutaneous Bicuculline Seizure Threshold Test (sc Bic); conditions: for ED50: Mus musculus, ip, read-out: ED50 Bicuculline, mice
Experimental: (§1) The solution was prepared by dissolving the compound in 30% polyethylene glycol 400. The compound was injected either orally or intraperitoneally in a volume of 0.01 ml/g body weight in mice and 0.04 ml/10 g body weight in rats.
(§2) The profile of anti-convulsant activity for each substance was established by five tests: one electrical and four chemical. […] The four chemical tests included the subcutaneous Metrazol Seizure Threshold Test (sc Met), subcutaneous Bicuculline Seizure Threshold Test (sc Bic), subcutaneous Picrotoxin Seizure Threshold Test (sc Pic), and the subcutaneous Strychnine Seizure Pattern Test (sc Strych). These tests are conducted by administering the anti-convulsant compound or drug to the animals then giving the convulsive amount of electrical energy or chemical convulsant and measuring the ability of the test compound to prevent the production of convulsions.
(c) scBic=Subcutaneous bicuculline seizure threshold test.
(§3) (j) PI=Protective index, defined as the ratio of TD50 to ED50 (TD50/ED50).

[2] = system: subcutaneous picrotoxin seizure threshold; conditions: mice
Experimental: as §1
(§4) The profile of anti-convulsant activity for each substance was established by five tests: one electrical and four chemical. The electrical test employed was the maximal electroshock seizure (MES) pattern test. The four chemical tests included the subcutaneous Metrazol Seizure Threshold Test (sc Met), subcutaneous Bicuculline Seizure Threshold Test (sc Bic), subcutaneous Picrotoxin Seizure Threshold Test (sc Pic), and the subcutaneous Strychnine Seizure Pattern Test (sc Strych). These tests are conducted by administering the anti-convulsant compound or drug to the animals then giving the convulsive amount of electrical energy or chemical convulsant and measuring the ability of the test compound to prevent the production of convulsions.
(§5) (d) scPic=Subcutaneous picrotoxin seizure threshold test.
(§6) (j) PI=Protective index, defined as the ratio of TD50 to ED50 (TD50/ED50). The PI is a measure of the safety of the drug. A high PI value indicates a greater margin of safety between the effective dose for the pharmacological effect and the toxic dose producing side-effects. A compound with a high PI would be a safer drug to use.

[3] = in vivo; conditions: mouse, ip
Experimental: as §1
(§7) (h) HD50=Hypnotic dose in 50% of the subjects tested.
(§8) (l) Slope of regression line--This represents the rate of change in response (effect) for a change in dose. The higher the numerical value of the slope, the greater the rate of change in response.

[4] = Rotorod Toxicity Test, rats; type: in vivo; conditions: rat, in vivo, po
Experimental: as §1
(§9) Untreated or normal animals can easily maintain their balance in this test.

[5] = system: subcutaneous strychnine seizure pattern; conditions: mice
Experimental: as §1, §2
(§10) (e) ScStrych=Subcutaneous strychnine seizure pattern test. The test measures the ability of the test drug to abolish all toxic components of seizures induced by the subcutaneous injection of a convulsant dose of strychnine.

[6] = system: maximal electroshock seizures; assay: maximal electroshock seizure (MES) pattern test, rats; conditions: for ED50: Rattus norvegicus, po, read-out: ED50 MES
Experimental: as §1
(§11) The profile of anti-convulsant activity for each substance was established by five tests: one electrical and four chemical. The electrical test employed was the maximal electroshock seizure (MES) pattern test. […] These tests are conducted by administering the anti-convulsant compound or drug to the animals then giving the convulsive amount of electrical energy or chemical convulsant and measuring the ability of the test compound to prevent the production of convulsions.
(§12) This test measures the ability of the test drug to abolish the hind-limb tonic-extensor component of maximal seizures induced by 50 mA of current delivered to the animals for 0.2 seconds.

[7] = system: subcutaneous metrazol seizure threshold; assay: subcutaneous Metrazol Seizure Threshold Test (sc Met), mice; conditions: for ED50: Mus musculus, read-out: ED50 sc Met
Experimental: as §1, §4
(§13) (b) scMet=Subcutaneous metrazol seizure threshold test. The test measures the ability of the test drug to afford complete protection against a subcutaneously administered convulsant dose of metrazol.
as §3

[8] = system: subcutaneous metrazol seizure threshold; assay: subcutaneous Metrazol Seizure Threshold Test (sc Met), rats; conditions: for ED50: Rattus norvegicus, po; for animals protected vs sc Met test: intraperitoneal, footnote of Table 5
Experimental: as §1, §4, §13, §3

[9] = system: lethality; assay: lethality, LD50; type: in vivo; conditions: mice; intraperitoneal; 24-hour period
Experimental: (§14) The anti-convulsant amide (4) was administered to mice and rats as a solution. The solution was prepared by dissolving the compound in 30% polyethylene glycol 400. The compound was injected either orally or intraperitoneally in a volume of 0.01 ml/g body weight in mice and 0.04 ml/10 g body weight in rats.

[10] = system: maximal electroshock seizures; assay: maximal electroshock seizure (MES) pattern test, mice; conditions: for ED50: Mus musculus, read-out: ED50 MES
Experimental: as §1, §11, §12

[11] = in vivo; conditions: mouse
Experimental: as §1, §9

[12] = system: subcutaneous picrotoxin seizure threshold; assay: animal or person; conditions: Mus musculus, ip, read-out: ED50 Picrotoxin
Experimental: as §1, §4, §5, §6

[13] = system: subcutaneous strychnine seizure pattern; assay: animal or person; conditions: Mus musculus, ip, read-out: ED50 Strychnine
Experimental: as §1, §2, §10

[14] = lethality, LD50; type: in vivo; conditions: mouse, in vivo, ip, mice, intraperitoneal; for LD50 at 24 h: 24-hour period
Experimental: as §14

[15] = in vivo; conditions: mouse; remark: listed apart in the source
Experimental: as §1, §11, §12

[16] = maximal electroshock seizure (MES) pattern test, rats; conditions: rat, in vivo, po, PI (TD50/ED50) MES, rats (Table 7; title of Table 5 prints Mice)
Experimental: as §1, §11, §12

[17] = subcutaneous Metrazol Seizure Threshold Test (sc Met), mice; conditions: mouse, in vivo, PI (TD50/ED50) sc Met, mice
Experimental: as §1, §4, §13, §3

[18] = subcutaneous Metrazol Seizure Threshold Test (sc Met), rats; conditions: rat, in vivo, po
Experimental: as §1, §4, §13, §3

[19] = system: ability to maintain balance on a rotating rod; assay: Rotorod Toxicity Test, rats; type: in vivo; conditions: for animals toxic: intraperitoneal, footnote of Table 5
Experimental: as §1, §9

[20] = system: righting reflex; assay: hypnosis (loss of righting reflex), HD50; conditions: mice; intraperitoneal
Experimental: as §1, §7, §8

[21] = hypnosis (loss of righting reflex), HD50; conditions: mouse, in vivo, ip
Experimental: as §1, §7, §8

[22] = system: ability to maintain balance on a rotating rod
Experimental: as §1, §9

[23] = system: convulsions; assay: anti-convulsant activity, overall statements from animal studies; type: in vivo; conditions: mice and rats
[24] = system: Salmonella indicator organisms; assay: in vitro microbial mutagenicity assays; conditions: 1.0 ug to 10,000.0 ug per plate
Experimental: The amide was examined for mutagenic activity in a series of in vitro microbial assays employing Salmonella indicator organisms. The compound was tested directly and in the presence of liver microsomal enzyme preparations from Aroclor-induced rats. The dose range employed for the evaluation was from 1.0 ug to 10,000.0 ug per plate. The results of the tests conducted on the amide in the absence of a metabolic activation system and in the presence of a rat liver activation system were negative.

[25] = mice, intraperitoneal, up to 100 (mg/kg)
[26] = mice, oral, at / up to 300 (mg/kg)
[27] = rats (Table 7; title of Table 5 prints Mice), oral
[28] = rats (Table 7; title of Table 5 prints Mice), oral, at 300 (mg/kg)

O=C1NC(=O)C(c2ccccc2)(c2ccccc2)N1 [Phenytoin]
protection, Bicuculline [1, 25]: No pro- | protection, Picrotoxin ([2]; intraperitoneal, up to 100 (mg/kg)): No pro- | TD50 [3]: 178 mg/kg | TD50 [4]: > 3000 mg/kg | Max. Prot., Strychnine ([5]; intraperitoneal, at 55-100 (mg/kg)): 50% | ED50 [6]: 29.8 mg/kg | protection, sc Met [7, 25]: No pro- | protection, sc Met ([7]; mice, intraperitoneal, up to 300 (mg/kg)): No protect-; also recorded: No protection | protection, sc Met [7, 26]: No protection; also recorded: No pro- | protection, sc Met ([8]; rats (Table 7; title of Table 5 prints Mice), oral, up to 800 (mg/kg)): No pro- | LD50 (lethality) [9]: 229.61 mg/kg

CCCN(CCC)C(=O)c1ccc(N)cc1 [compound 5]
ED50 ([10]; ip): 61.7 mg/kg | TD50 ([11]; ip): 116 mg/kg

Nc1ccc(C(=O)NC2CCCCC2)cc1 [compound 2]
ED50 ([10]; ip): 67.2 mg/kg | ED50 ([7]; ip): 123 mg/kg | TD50 ([11]; ip): 189 mg/kg

Nc1ccc(C(=O)NCc2ccccc2)cc1 [No. 4, 4-amino-N-benzyl-benzamide]
ED50 ([10]; ip): 23.3 mg/kg | TD50 ([11]; ip): 83.4 mg/kg

NC(=O)N1c2ccccc2C=Cc2ccccc21 [Carbamazepine]
ED50 ([10]; ip): 8.81 mg/kg | ED50 ([10]; po): 15.4 mg/kg | fraction protected, Bicuculline ([1]; mice, intraperitoneal, 100 mg/kg): 1/2 | Max. Prot., Bicuculline ([1]; mice, intraperitoneal, at 50-130 (mg/kg)): 62.5% | ED50 [12]: 37.2 mg/kg | ED50 [13]: 78.8 mg/kg | TD50 [3]: 172 mg/kg | ED50 [6]: 8.5 mg/kg | ED50 ([7]; po): 48.1 mg/kg | protection, sc Met [7, 25]: No protection; also recorded: No protect- | sc Met result in words [8, 27]: Variable | LD50 at 24 h [14]: 629 mg/kg

CCC1(c2ccccc2)NC(=O)N(C)C1=O (stereo not shown) [Mephenytoin]
ED50 ([10]; ip): 60.5 mg/kg | ED50 ([10]; po): 65.9 mg/kg | selectivity ratio ([15]; ip, PI (TD50/ED50) MES, mice, intraperitoneal): 2.54 | selectivity ratio ([15]; po, PI (TD50/ED50) MES, mice): 5.37 | PI (TD50/ED50) Bicuculline ([1]; mice, intraperitoneal): 1.24 | PI (TD50/ED50) Picrotoxin ([2]; intraperitoneal): 1.52 | ED50 [12]: 101 mg/kg | TD50 [3]: 406 mg/kg | TD50 [4]: 85.7 mg/kg | Max. Prot., Strychnine ([5]; intraperitoneal, at 70-150 (mg/kg)): 50% | ED50 [6]: 18.1 mg/kg | selectivity ratio [16]: 4.74 | ED50 ([7]; ip): 30.4 mg/kg | ED50 ([7]; po): 36.3 mg/kg | PI (TD50/ED50) sc Met ([7]; mice, oral): 9.73 | selectivity ratio ([17]; intraperitoneal): 5.05 | selectivity ratio ([17]; oral): 9.75 | ED50 ([8]; read-out: ED50 sc Met): 21.6 mg/kg | selectivity ratio [18]: 3.96 | selectivity ratio ([14]; read-out: Ratio LD50/HD50): 1.4 | selectivity ratio ([14]; read-out: Ratio LD50/TD50): 3.69 | LD50 at 24 h [14]: 568 mg/kg | TD50 ([11]; po): 354 mg/kg

CCC1(c2ccccc2)C(=O)NC(=O)NC1=O [Phenobarbital]
ED50 ([10]; ip): 21.8 mg/kg | ED50 ([10]; po): 20.1 mg/kg | ED50 ([1]; intraperitoneal): 37.7 mg/kg | ED50 [12]: 27.5 mg/kg | ED50 [13]: 95.3 mg/kg | Rotorod TD50 [19, 27]: 61.09 mg/kg | HD50 (righting reflex) [20]: 135.45 mg/kg | TD50 [21]: 135 mg/kg | ED50 [6]: 9.14 mg/kg | ED50 ([7]; ip): 13.2 mg/kg | ED50 ([7]; po): 12.6 mg/kg | ED50 ([8]; read-out: ED50 sc Met, rats (Table 7; title of Table 5 prints Mice), oral): 11.6 mg/kg | ED50 sc Met [8, 27]: 11.58 mg/kg | LD50 (lethality) [9]: 264.70 mg/kg

Nc1ccc(C(=O)Nc2ccccc2)cc1 [compound 1]
ED50 ([10]; ip): 50.5 mg/kg | TD50 ([22]; mouse, in vivo, ip): 111.30 mg/kg | ED50 ([7]; ip): 59.1 mg/kg

CC(NC(=O)c1ccc(N)cc1)c1ccccc1 (stereo not drawn) [4-amino-N-(alpha-methylbenzyl)-benzamide]
oral ED50/i.p. ED50 ([10]; MES test in mice): 2.65 | ED50 ([10]; ip): 18 mg/kg | ED50 ([10]; po): 47.7 mg/kg | absorption after oral administration ([10]; mice, from oral ED50/i.p. ED50 in MES test): adequately absorbed | selectivity ratio ([15]; ip): 9.48 | selectivity ratio ([15]; po): 5.69 | ED50 ([1]; intraperitoneal): 39.1 mg/kg | activity against seizures induced by bicuculline ([1]; mice, in words): effective against seizures induced by bicuculline | PI (TD50/ED50) Bicuculline ([1]; mice, intraperitoneal): 4.37 | activity against picrotoxin seizures ([2]; in words): effective against picrotoxin seizures in toxic doses | PI (TD50/ED50) Picrotoxin ([2]; intraperitoneal): 0.89 | ED50 [12]: 191 mg/kg | anti-convulsant activity in words [23]: effective against a wide range of convulsion types; also recorded: exhibits anti-convulsant activity in mice and rats | TD50 [4]: 170 mg/kg | animals toxic ([19]; 75 mg/kg): 2/8 | animals toxic ([19]; 150 mg/kg): 6/8 | activity against seizures induced by strychnine ([5]; in words): only partially effective | PI (TD50/ED50) Strychnine ([5]; intraperitoneal): < 0.85 | Maximum protection, Strychnine ([5]; intraperitoneal, at 170 mg/kg): 37.5% | protection, Strychnine ([5]; intraperitoneal, at 200 (mg/kg)): 25% | HD50 (righting reflex) [20]: 461.76 mg/kg | TD50 [21]: 462 mg/kg | Rotorod TD50 ([22]; mice, intraperitoneal): 170.78 mg/kg | ED50 [6]: 16.1 mg/kg | PI (TD50/ED50) MES [6, 27]: 10.5 | selectivity ratio [16]: 10.6 | ED50 ([7]; ip): 41.7 mg/kg | Maximum protection, sc Met ([7]; mice, oral, at 100 (mg/kg)): 25% | protection, sc Met [7, 26]: no protection and No | selectivity ratio ([17]; intraperitoneal): 4.09 | selectivity ratio ([17]; oral): < 0.9 | animals protected vs sc Met test ([8]; 75 mg/kg): 4/8 | animals protected vs sc Met test ([8]; 150 mg/kg): 8/8 | Max. Prot., sc Met [8, 28]: 50% | animals with recurring clonic seizures, sc Met [8, 28]: 1 of 8 | selectivity ratio ([14]; read-out: Ratio LD50/HD50): 1.56 | selectivity ratio ([14]; read-out: Ratio LD50/TD50): 4.21 | LD50 at 24 h [14]: 718 mg/kg | mutagenic activity ([24]; absence of a metabolic activation system): negative | mutagenic activity ([24]; rat liver activation system): negative | TD50 ([11]; ip): 171 mg/kg | TD50 ([11]; po): 271 mg/kg

CCCCCNC(=O)c1ccc(N)cc1 [compound 3]
ED50 ([10]; ip): 43 mg/kg | ED50 ([7]; ip): 57.3 mg/kg | TD50 ([11]; ip): 68.5 mg/kg
